Data reported in patent US20090305995A1, “AGONISTS AND ANTAGONISTS OF THE SOMATOSTATIN RECEPTOR” (Novartis AG, priority 2004, published 2009).
≈ marks a conversion by molar mass, not a printed value. Where two headings read alike, the source gives them in different places.

What was measured:
Format in all cases: physicochemical
[1] = high throughput solubility (HT-Solubility); conditions: for water solubility (in words): see FIG. 10
[2] = high throughput permeability (HT-Permeability, log Pe); conditions: PAMPA, Pe in cm/s
[3] = HT-logP o/w, high throughput assay based on artificial liquid membrane permeability
From the text: To be absorbed and transported by passive diffusion, drugs must be sufficiently lipophilic to penetrate the lipid cores of membranes, but not too lipophilic that they get retained and accumulated there. The lipophilictity of a compound is expressed by the octanol/water partition coefficient or distribution coefficient. A first approximation of substance polarity can either be given by computer assisted calculations giving Clog P values or by measurement of the partition coefficients in high-throughput assays (HT-log P o/w) (Faller et al., 2004; Wohnsland et al., 2001).
Octanol/water partition coefficients are measured in a high throughput assay based on artificial liquid membrane permeability. […] Still many approaches to calculate log P values are limited due to a lack of parameterization of certain fragments and fail with increasing molecular weight which implicates higher structural complexity. Similar problems and failures are observed in chromatographic determinations of log P: Peptides might undergo structural changes driven by interactions with the stationary phase. Decisive interactions between the stationary phase and the defolded analytes are therefore also based on the linear peptide sequence. For this reason measured HT-log P o/w values based on chromatographic assays employing stationary phases may lead to erroneous results.

[4] = pH 1, pH 1.0, read-out: HT-Solubility pH 1.0
[5] = pH 6.8, pH 6.8, read-out: HT-Solubility pH 6.8
[6] = pH 4, pH 4.0, read-out: HT-Permeability logPe pH 4.0 (converted)
[7] = octanol/water, read-out: HT LogP ohw
[8] = pH 6.8, pH 6.8, read-out: HT-Permeability logPe pH 6.8 (converted)
[9] = pH 8, pH 8.0, read-out: HT-Permeability logPe pH 8.0 (converted)

Row | solubility [1, 4] [µg/mL] | solubility [1, 5] [µg/mL] | Papp [2, 6] [×10⁻⁶ cm/s] | logP [3, 7] | water solubility (in words) [1] | Papp [2, 8] [×10⁻⁶ cm/s] | Papp [2, 9] [×10⁻⁶ cm/s] | SMILES | solubility ([1]; pH 1.0, read-out: HT-Solubility pH 1.0) [µg/mL] | solubility ([1]; pH 6.8, read-out: HT-Solubility pH 6.8) [µg/mL] | Papp ([2]; pH 4.0, read-out: HT-Permeability logPe pH 4.0 (converted)) [×10⁻⁶ cm/s] | logP ([3]; octanol/water; read-out: HT LogP ohw)
1 | 126 (≈ 200 µM) | 63.1 (≈ 100 µM) | 1 | 2.8 | – | – | – | CCC(=O)N[C@H](CC(=O)N[C@H](Cc1c[nH]c2ccccc12)C(=O)N[C@@H](CCCCN)CC(=O)NC1CCCC1)Cc1ccccc1 [Compound 57, Propionyl-(S)-β^3-HPhe-(R)-Trp-(S)-β^3-HLys-cyclopentyl-amide] | – | – | – | –
2 | 124 (≈ 200 µM) | 30.9 (≈ 49.9 µM) | 7.94 | 3.1 | medium to good | 5.01 | 10 | CCCCNC(=O)C[C@H](CCCCN)NC(=O)[C@@H](Cc1c[nH]c2ccccc12)NC(=O)C[C@H](Cc1ccccc1)NC(=O)CC [Compound 53, Propionyl-(S)-β^3-HPhe-(R)-Trp-(S)-β^3-HLys-butyl-amide] | – | – | – | –
3 | 115 (≈ 200 µM) | 115 (≈ 200 µM) | 5.01 | 2.9 | – | – | 3.98 | NCCCC[C@@H](CC(=O)NC1CCCC1)NC(=O)[C@@H](Cc1c[nH]c2ccccc12)NC(=O)C[C@@H](N)Cc1ccccc1 [Compound 62, (S)-β^3-HPhe-(R)-Trp-(S)-β^3-HLys-cyclopentyl-amide] | – | – | – | –
4 | 127 (≈ 200 µM) | 127 (≈ 200 µM) | 3.98 | 3 | highest solubility values | 1.58 | 1 | CCCCCN(C)C(=O)C[C@H](CCCCN)NC(=O)[C@@H](Cc1c[nH]c2ccccc12)NC(=O)C[C@H](Cc1ccccc1)NC(C)=O [Compound 47, Ace-(S)-β^3-HPhe-(R)-Trp-(S)-β^3-HLys-methyl-pentyl-amide] | – | – | – | –
5 | 129 (≈ 200 µM) | 12.9 (≈ 20 µM) | 0.1 | 3 | – | – | – | CCCC(=O)N[C@H](CC(=O)N[C@H](Cc1c[nH]c2ccccc12)C(=O)N[C@@H](CCCCN)CC(=O)NC1CCCC1)Cc1ccccc1 [Compound 56, Butyroyl-(S)-β^3-HPhe-(R)-Trp-(S)-β^3-HLys-cyclopentyl-amide] | – | – | – | –

More lines, now with the values behind:

Row | SMILES | solubility [1, 4] [µg/mL] | solubility [1, 5] [µg/mL] | Papp [2, 6] [×10⁻⁶ cm/s] | logP [3, 7] | water solubility (in words) [1] | Papp [2, 8] [×10⁻⁶ cm/s] | Papp [2, 9] [×10⁻⁶ cm/s] | solubility ([1]; pH 1.0, read-out: HT-Solubility pH 1.0) [µg/mL] | solubility ([1]; pH 6.8, read-out: HT-Solubility pH 6.8) [µg/mL] | Papp ([2]; pH 4.0, read-out: HT-Permeability logPe pH 4.0 (converted)) [×10⁻⁶ cm/s] | logP ([3]; octanol/water; read-out: HT LogP ohw)
6 | C[C@H]1OC(=O)C[C@H]1NC(=O)C[C@H](CCCCN)NC(=O)[C@@H](Cc1c[nH]c2ccccc12)NC(=O)C[C@H](Cc1ccccc1)NC(=O)c1ccccc1 [Compound 6, Benzoyl-(S)-β^3-HPhe-(R)-Trp-(S)-β^3-HLys-(R)-4-amino-(R)-5-methyl-dihydro-furan-2-one] | – | – | – | – | – | – | – | 142 (≈ 200 µM) | 14.2 (≈ 20 µM) | 0.1 | 2.8
7 | CC(C)[C@@H](CC(=O)N(C)CCc1ccccc1)NC(=O)C[C@H](CCCCN)NC(=O)[C@@H](Cc1c[nH]c2ccccc12)NC(=O)C[C@H](Cc1ccccc1)NC(=O)CCc1ccccc1 [Compound 23, Dihydrocinnemoyl-(S)-β^3-HPhe-(R)-Trp-(S)-β^3-HLys-(R)-β^3-Leu-methyl-phenethyl-amide] | 17.4 (≈ 20 µM) | 17.4 (≈ 20 µM) | 0.1 | 5.9 | – | – | – | – | – | – | –
8 | C[C@H]1OC(=O)C[C@H]1NC(=O)C[C@H](CCCCN)NC(=O)[C@@H](Cc1c[nH]c2ccccc12)NC(=O)C[C@H](Cc1ccccc1)NC(=O)CCc1ccccc1 [Compound 10, Dihydrocinnemoyl-(S)-β^3-HPhe-(R)-Trp-(S)-β^3-HLys-(R)-4-amino-(R)-5-methyl-dihydro-furan-2-one] | 36.8 (≈ 49.9 µM) | 7.4 (≈ 10 µM) | 0.1 | 2.7 | – | – | – | – | – | – | –
9 | CC(=O)N(C)[C@H](CC(=O)N[C@H](Cc1c[nH]c2ccccc12)C(=O)N[C@@H](CCCCN)CC(=O)N[C@@H]1CC(=O)O[C@@H]1C)Cc1ccccc1 [Compound 39, Ac—N-Me-(S)-β^3-HPhe-(R)-Trp-(S)-β^3-HLys-(R)-4-amino-(R)-5-methyl-dihydro-furan-2-one] | 132 (≈ 200 µM) | 132 (≈ 200 µM) | 5.01 | 3.4 | – | 2 | 3.16 | – | – | – | –
10 | CC(=O)N[C@H](CC(=O)N[C@H](Cc1c[nH]c2ccccc12)C(=O)N[C@@H](CCCCN)CC(=O)NC1CCCC1)Cc1ccccc1 [Compound 31, Ac—(S)-β^3-HPhe-(R)-Trp-(S)-β^3-HLys-cyclopentyl-amide] | 123 (≈ 200 µM) | 123 (≈ 200 µM) | 2.51 | 2.8 | – | 2 | 1 | – | – | – | –
